Experimental data: US9988380B2, “Quorum sensing inhibitors” (priority 2013, dated 2018)

Legend:
[1] = tested on: rhlA-gfp(ASV) expression; assay: Inhibition of the Rhl QS system, rhlA-gfp(ASV) reporter in PAO1 wild-type and lasR mutant; assay type: cell-based, P. aeruginosa
Description: (§1) Inhibition of the Rhl and PQS QS systems in wild-type PAO1 and PAO1 lasR mutant. Wild-type P. aeruginosa PAO1 strains harboring either the rhlA-gfp(ASV) reporter or the pqsA-gfp(ASV) reporter, and a P. aeruginosa PAO1 lasR mutant harboring either the rhlA-gfp(ASV) reporter or the pqsA-gfp(ASV) reporter were used for this experiment (Refer to FIG. 11 for strain information). Overnight cultures of these four strains were diluted 100-fold in ABTGC media within 96-well microtitre plates to a final volume of 200 μL per well. Each of the five QSIs was added in triplicate to a final concentration of 50 μM. 0.5% DMSO was used as a negative control. The microtitre plate was incubated at 37° C. in a Tecan Infinite 200 Pro plate reader where GFP and OD600 readings were measured at 15 min intervals.
(§2) Effect of QSIs on Rhl and Pqs Quorum-Sensing Systems. In order to address the problem of the specificity of present compounds, the five identified QSI compounds were tested to see if they had any effect on the rhl and pqs systems. The five QSIs were tested against a PAO1 wild-type and a PAO1 lasR mutant harboring either the rhlA-gfp (ASV) bioreporter or the pqsA-gfp (ASV) bioreporter. The rhlA system is dependent on the RhlR/I system. By doing so, we were able to determine if a QSI is able to inhibit the other two QS systems (i.e. rhl and pqs) in a lasR-dependent/independent manner (FIG. 8).

[2] = tested on: pqsA-gfp(ASV) expression; assay: Inhibition of the PQS QS system, pqsA-gfp(ASV) reporter in PAO1 wild-type and lasR mutant; assay type: cell-based, P. aeruginosa
Description: as §1, §2

[3] = tested on: LasR-controlled GFP expression in P. aeruginosa PAO1 lasB-gfp(ASV) strain; assay: P. aeruginosa QS inhibition assay with lasB-gfp(ASV) reporter strain; assay type: cell-based, Pseudomonas aeruginosa; settings: for effect on cell growth / inhibition of LasR-controlled GFP expression: P. aeruginosa lasB-gfp(ASV) strain; for effect on cell growth: OD600; for inhibition of LasR-controlled GFP expression: 0.78125-50 μM
Description: P. aeruginosa QS inhibition assays. Test compounds were dissolved in 100% DMSO and mixed with ABTGC media, after which they were added to the first column of wells of a 96-well microtitre plate (Nunc) to give a final concentration of 100 μM in a final volume of 200 μl. 100 μL of ABTGC media was then added to the remaining wells in the plate and serial two-fold dilutions of the inhibitors were done by adding 100 μL of the preceding inhibitor-containing well to the subsequent one. The final column was left without inhibitor as a control. Next, an overnight culture of P. aeruginosa lasB-gfp(ASV) strain, grown in LB medium at 37° C. with shaking, was diluted to an optical density (OD) at 600 nm of 0.2, and 100 μl of bacterial suspension was added to each well of the microtitre plate. […] The microtitre plate was incubated at 37° C. in a Tecan Infinite 200 Pro plate reader (Tecan Group Ltd., Männedorf, Switzerland). GFP fluorescence (excitation at 485 nm, emission at 535 nm) and cell density (OD600) measurements were collected at 15 min intervals for at least 14 h. The P. aeruginosa Rhl and Pqs inhibition assays were performed in a similar manner to the LasR inhibition assay.
Inhibition Assay with the P. aeruginosa lasB-gfp(ASV) strain. In the preliminary screen, the 22 selected QSI candidates were screened for their ability to inhibit QS-controlled green fluorescent protein (GFP) expression in the P. aeruginosa lasB-gfp(ASV) strain. Elastase (encoded by the lasB gene) is a virulence factor that is controlled by LasR and therefore a good indicator for LasR activity. […] For ease of identification, each compound was designated a short compound identification code based on its well position in the shipment in place of its standard IUPAC name.
The dose-response curves of these 5 QSI candidates when incubated with the P. aeruginosa PAO1 lasB-gfp(ASV) strain are shown in FIG. 3. GFP expression, which was measured in relative fluorescence units, was normalized by dividing the GFP value by the corresponding OD600 value measured at that time-point. ‘Control’ refers to the PAO1 strain grown without the presence of QSI, and as expected, it had the highest GFP per OD values. For these five compounds, dose-dependent inhibition of lasB-gfp expression was observed, i.e. the higher the concentration of QSI that was present, the greater the inhibition of gfp expression.
IC50 Value Comparisons of the Five QSI Candidates. The slope of the curve for each QSI was calculated based on its respective dose-response curves (from FIG. 3) and plotted against the log inhibitor concentration. The slope is indicative of the biosynthesis rate of GFP due to AHL induction. The half maximal inhibitory concentrations (IC50) of the five QSI candidates were calculated using the Graphpad Prism 6 software package (GraphPad Software Inc., CA, USA).

[4] = tested on: elastase (lasB; PA3724); settings: cited from earlier work
[5] = tested on: protease IV; settings: cited from earlier work

Row | SMILES | effect on cell growth [3] | inhibition of LasR-controlled GFP expression [3] | reduction of expression of elastase [4] [fold] | also measured
1 | NC(Cc1cccc(F)c1)C(=O)O (racemic) [Compound F1, 2-amino-3-(3-fluorophenyl)propanoic acid] | without affecting cell growth | inhibit LasR-controlled GFP expression in a dose-dependent manner | – | inhibition of rhlA-gfp expression ([1]; PAO1 lasR mutant, 50 μM QSI): 63.1%; inhibition of rhlA-gfp expression ([1]; wild-type PAO1, 50 μM QSI): 61.7%; inhibition of pqsA-gfp expression ([2]; PAO1 lasR mutant, 50 μM QSI): 39.4%; inhibition of pqsA-gfp expression ([2]; wild-type PAO1, 50 μM QSI): 25.4%
2 | NC(C(=O)O)C(O)c1ccccc1 (racemic) [Compound H1, 2-amino-3-hydroxy-3-phenylpropanoic acid] | without affecting cell growth | inhibit LasR-controlled GFP expression in a dose-dependent manner | – | –
3 | O=[N+]([O-])c1cc[n+]([O-])cc1 [Compound 4-NPO, 4-nitropyridine-N-oxide] | – | – | −22.6 | reduction of expression of protease IV [5]: −20.7 fold
4 | O=c1[nH]cnc2[nH]nnc12 [Compound C1, 6-hydro-3H-1,2,3-triazolo[5,4-d]pyrimidin-7-one] | without affecting cell growth | inhibit LasR-controlled GFP expression in a dose-dependent manner | – | IC50 of lasB-gfp expression, range in words ([3]; P. aeruginosa PAO1 lasB-gfp(ASV)): high nanomolar range
5 | O=C1C=C2C(=CCOC2O)O1 (stereo not drawn) [patulin] | – | – | −7 | –
6 | C=C(C)C(=O)C(=CC(=O)O)OC [penicillic acid] | – | – | −12 | –
